Values of other authors as cited in patent US20230399688A1, “COMPOSITIONS AND M[…] FOR COUPLED CELL-FREE TRANSCRIPTION-T[…] PROTEIN SYNTHESIS AND METHODS FOR USING THEM” (GENOMATICA, INC., priority 2015, published 2023).

Tested on: human cancer cell lines
Conditions: in comparison to the parent drug, MTM

For `CO[C@@H]([C@@H]1Cc2cc3cc(O[C@H]4C[C@@H](O[C@H]5C[C@@H](O)[C@H](O)[C@@H](C)O5)[C@H](O)[C@@H](C)O4)c(C)c(O)c3c(O)c2C(=O)[C@H]1O[C@H]1C[C@@H](O[C@H]2C[C@@H](O[C@H]3C[C@](C)(O)[C@H](O)[C@@H](C)O3)[C@@H](O)[C@@H](C)O2)[C@H](O)[C@@H](C)O1)[C@@H](O)C(C)=O` [MTM-SK, mithramycin SK], the therapeutic index is listed as “improved therapeutic index”.
